Consider 14 compounds from ChEMBL document CHEMBL5634165, “Design, synthesis and activity evaluation of quinolinone derivatives as EZH2 inhibitors” (Bioorg Med Chem Lett, 2024).

Assay [1] deals with A549. Nature of the assay: cells. Conditions: Homo sapiens.
Description: Antiproliferative activity against human A549 cells by MTT assay
Assay [2] relates to A549. The experiment in a line: Inhibition of colony formation in human A549 cells assessed as clone formation rate relative to control. The assay is classed as functional. Also noted: concentration or dose not given beside the values.
Assay [3] addresses T1, Histone-lysine N-methyltransferase EZH2 (Homo sapiens, UniProt Q15910). Nature of the assay: Inhibition of EZH2 (unknown origin).
Target sequence in this assay (Q15910 whole entry): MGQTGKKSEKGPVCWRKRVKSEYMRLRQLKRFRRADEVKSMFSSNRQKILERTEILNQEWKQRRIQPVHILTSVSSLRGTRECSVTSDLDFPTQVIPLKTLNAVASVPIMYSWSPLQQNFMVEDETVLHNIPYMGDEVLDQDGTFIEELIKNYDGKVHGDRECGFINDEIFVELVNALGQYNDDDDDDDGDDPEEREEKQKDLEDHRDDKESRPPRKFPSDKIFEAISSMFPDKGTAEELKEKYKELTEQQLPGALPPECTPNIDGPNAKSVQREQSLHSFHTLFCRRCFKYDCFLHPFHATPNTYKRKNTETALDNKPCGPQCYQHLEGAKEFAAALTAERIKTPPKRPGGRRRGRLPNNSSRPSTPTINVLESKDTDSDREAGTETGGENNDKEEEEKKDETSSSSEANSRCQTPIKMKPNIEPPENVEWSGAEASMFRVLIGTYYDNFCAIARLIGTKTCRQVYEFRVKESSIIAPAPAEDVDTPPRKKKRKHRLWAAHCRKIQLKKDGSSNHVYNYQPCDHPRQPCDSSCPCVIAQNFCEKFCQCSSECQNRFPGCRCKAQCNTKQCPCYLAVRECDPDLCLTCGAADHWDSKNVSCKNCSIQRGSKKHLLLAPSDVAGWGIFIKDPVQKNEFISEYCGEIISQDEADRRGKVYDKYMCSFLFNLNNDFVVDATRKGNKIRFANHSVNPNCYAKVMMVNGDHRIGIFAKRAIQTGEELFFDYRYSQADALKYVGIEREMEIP
Assay [4] concerns HeLa. Nature of the assay: Antiproliferative activity against human HeLa cells by MTT assay. In kind it is functional, cell-based. (In general: Tetrazolium assays rely on reduction of a dye to a coloured formazan, in cell work by metabolically active cells.)
For assay [5], the system named is HeLa. The experiment in a line: Inhibition of colony formation in human HeLa cells assessed as clone formation rate relative to control. Details: scale not given: the % may be the effect or the level left. The assay is classed as functional.
Assay [6] deals with Histone-lysine N-methyltransferase EZH2 (Homo sapiens, UniProt Q15910, Y641F). Nature of the assay: Inhibition of EZH2 Y641F mutant (unknown origin).
Histone-lysine N-methyltransferase EZH2 (Homo sapiens, UniProt Q15910, Y641F), sequence (Q15910 whole entry Y641F): as the sequence (Q15910 whole entry) above, with Y641F counted along it
Assay [7] concerns HeLa. The experiment in a line: Inhibition of cell migration in human HeLa cells assessed as reduction of cell scratch width incubated for 24 hrs. In kind it is functional, cell-based.
The subject of assay [8] is A549. The experiment in a line: Induction of apoptosis in human A549 cells assessed as late apoptotic cells incubated for 24 hrs by Annexin V/PI staining based flow cytometry analysis (reference value: 5.03 %). In kind it is functional. For orientation: In flow cytometry, cells or beads pass a laser one at a time.
The test system of assay [9] is HeLa. Nature of the assay: Induction of apoptosis in human HeLa cells assessed as late apoptotic cells by Annexin V/PI staining based flow cytometry analysis (reference value: 6.46 %). The assay is classed as functional.
In assay [10] the test system is A549. The experiment in a line: Induction of apoptosis in human A549 cells assessed as necrotic cells incubated for 24 hrs by Annexin V/PI staining based flow cytometry analysis (reference value: 1.35 %). In kind it is functional.
Assay [11] has as its target T1, Histone-lysine N-methyltransferase EZH2. The experiment in a line: Inhibition of EZH2 in human A549 cells assessed as reduction in H3K27me3 expression level incubated for 72 hrs by Western blotting analysis. The assay is classed as cell-based. Conditions: dose 1-3 µM.
Target sequence in this assay (Q15910 whole entry, looked up): as the sequence (Q15910 whole entry) above
For assay [12], the system named is A549. Nature of the assay: Induction of apoptosis in human A549 cells assessed as viable cells incubated for 24 hrs by Annexin V/PI staining based flow cytometry analysis (reference value: 91.6 %). The assay is classed as functional.
The test system of assay [13] is HeLa. Nature of the assay: Induction of apoptosis in human HeLa cells assessed as early apoptotic cells by Annexin V/PI staining based flow cytometry analysis (reference value: 1.72 %). In kind it is functional.
Assay [14] concerns A549. Nature of the assay: Induction of apoptosis in human A549 cells assessed as early apoptotic cells incubated for 24 hrs by Annexin V/PI staining based flow cytometry analysis (reference value: 1.17 %). In kind it is functional.
Assay [15] has as its system HeLa. The experiment in a line: Induction of apoptosis in human HeLa cells assessed as viable cells by Annexin V/PI staining based flow cytometry analysis (reference value: 91.0 %). In kind it is functional.
The subject of assay [16] is HeLa. Nature of the assay: Induction of apoptosis in human HeLa cells assessed as nectrotic cells by Annexin V/PI staining based flow cytometry analysis (reference value: 0.782 %). In kind it is functional.
Assay [17] has as its target T1, Histone-lysine N-methyltransferase EZH2. Nature of the assay: Inhibition of EZH2 in human A549 cells assessed as reduction in H3K27me3 expression level at 3 uM incubated for 72 hrs by Western blotting analysis. In kind it is cell-based.
Target sequence in this assay (Q15910 whole entry, looked up): as the sequence (Q15910 whole entry) above

pIC50: −log10 of the molar value. Activity calls are given as the source filed them. The rule behind the calls is not given here.

Broadly, the pIC50 is the negative decadic logarithm of the IC50, by convention in mol/L. `Cc1cc(C)c(CNC(=O)c2cc(-c3ccc(C(=O)O)cc3)cc3[nH]c(=O)ccc23)c(=O)[nH]1`: the pIC50 is 4.89 in assay [1], 8.67 in assay [3], 4.69 in [4] and 8.19 in [6]. Besides, the Activity is reported as 58% in assay [2] and 49% in assay [5].

For the compound `Cc1cc(C)c(CNC(=O)c2cc(-c3ccccc3)cc3[nH]c(=O)ccc23)c(=O)[nH]1`, the pIC50 was 4.71 in assay [1], 8.20 in assay [3], 4.36 in assay [4] and 7.99 in assay [6].

Regarding `Cc1cc(C)c(CNC(=O)c2cc(-c3ccc(Br)cc3)cc3[nH]c(=O)ccc23)c(=O)[nH]1`, the inhibition result in [7] is “Active”. Also, the pIC50 in assay [1] was 4.96; in assay [3], 9.00; in assay [4], 4.60; in [6], 8.25. The Activity in [8] came to 51.8%; in assay [9], 16.5%; in assay [2] it was 40%; in [10], 1.07%; in [12], 34.7%; in assay [5], 45%. Moreover, the Activity was found to be 4.72% in [13] and 12.4% in assay [14]. For the same compound, in assay [11], the inhibition entry is “Dose-Dependent Effect”.

With `Cc1cc(C)c(CNC(=O)c2cc(-c3cccnc3)cc3[nH]c(=O)ccc23)c(=O)[nH]1`, the pIC50 in [1] was 4.61; in assay [3], 8.42; in [4], 4.32; in assay [6] it was 8.07.

On to `Cc1cc(C)c(CNC(=O)c2cc(-c3cccc4ccccc34)cc3[nH]c(=O)ccc23)c(=O)[nH]1`, for which the pIC50 in assay [1] was 4.52; in assay [3], 8.13; in [4], < 4.30; in assay [6], 7.91.

Regarding `COc1c(C)cccc1-c1cc(C(=O)NCc2c(C)cc(C)[nH]c2=O)c2ccc(=O)[nH]c2c1`, the pIC50 in assay [1] was 4.45; in [3] it was 8.38; in assay [4] it was < 4.30; in assay [6], 7.98.

`Cc1ccc(-c2cc(C(=O)NCc3c(C)cc(C)[nH]c3=O)c3ccc(=O)[nH]c3c2)cc1`: the pIC50 in assay [1] was 4.56; in assay [3] it was 8.56; in assay [4], 4.47; in assay [6], 8.11.

With `COc1cc(-c2cc(C(=O)NCc3c(C)cc(C)[nH]c3=O)c3ccc(=O)[nH]c3c2)ccc1F`, the inhibition entry in assay [7] and in assay [17] was “Active” throughout. In addition, the pIC50 in assay [1] is 4.91; in [3] it was 9.03; in assay [4], 4.74; in [6], 8.27. Moreover, the Activity was determined as 58.5% in [15]; 17.3% in assay [8]; 33.3% in assay [9]; 46% in assay [2]; 0.8% in assay [10]; 4.32% in assay [16]. The Activity in [12] amounted to 78.2%; in assay [5] it was 39%; in assay [13] it was 5.85%; in [14], 3.63%.

On to `CCN(c1cc(-c2ccc(CN3CCOCC3)cc2)cc(C(=O)NCc2c(C)cc(C)[nH]c2=O)c1C)C1CCOCC1` [TAZEMETOSTAT], for which the pIC50 was 4.80 in assay [1] and 4.56 in assay [4]. Moreover, the Activity in assay [15] was 74%; in assay [8], 52.6%; in assay [9], 19.6%; in assay [2], 45%; in [10], 10.8%; in [16] it was 1.2%. In addition, the Activity in [12] is given as 34.3%; in assay [5], 47%; in assay [13] it was 5.21%; in assay [14] it was 2.3%.

Take `COc1ccc2cc(-c3cc(C(=O)NCc4c(C)cc(C)[nH]c4=O)c4ccc(=O)[nH]c4c3)ccc2c1`: the pIC50 in assay [1] is 4.69; in [3], 8.18; in [4], < 4.30; in assay [6], 8.13.

Regarding `Cc1cc(C)c(CNC(=O)c2cc(-c3ccc(Oc4ccccc4)cc3)cc3[nH]c(=O)ccc23)c(=O)[nH]1`, the pIC50 was < 4.30 in assay [1], 8.09 in assay [3], 4.33 in assay [4] and 8.03 in assay [6].

Regarding `Cc1cc(C)c(CNC(=O)c2cc(-c3ccc(-c4ccccc4)cc3)cc3[nH]c(=O)ccc23)c(=O)[nH]1`, the negative logarithm of the IC50 (pIC50) in assay [1] was 4.87; in assay [3], 8.78; in assay [4], 4.53; in [6], 8.13. The Activity is recorded as 47.3% in assay [8]; 42% in [2]; 3.6% in [10]; 38.4% in assay [12]; 10.1% in assay [14].

For the compound `Cc1cc(C)c(CNC(=O)c2cc(-c3ccc4ncccc4c3)cc3[nH]c(=O)ccc23)c(=O)[nH]1`, the pIC50 is < 4.30 in assay [1], 8.08 in assay [3], < 4.30 in assay [4] and 7.93 in assay [6].

Consider `COc1cccc(OC)c1-c1cc(C(=O)NCc2c(C)cc(C)[nH]c2=O)c2ccc(=O)[nH]c2c1`, for which the pIC50 in [1] was 4.42; in [3] it was 8.23; in assay [4], < 4.30; in assay [6], 8.05.
